The target in the first series is Beta-3 adrenergic receptor (Homo sapiens, UniProt P13945). Put plainly: DRUGMATRIX: Adrenergic beta3 radioligand binding (ligand: [125I] Cyanopindolol). The class given is cell membranes, HEK293, Membrane. Particulars: hek293; Not Active = under 50% inhibition at 10 µM.
Chain of Beta-3 adrenergic receptor (P13945 whole entry): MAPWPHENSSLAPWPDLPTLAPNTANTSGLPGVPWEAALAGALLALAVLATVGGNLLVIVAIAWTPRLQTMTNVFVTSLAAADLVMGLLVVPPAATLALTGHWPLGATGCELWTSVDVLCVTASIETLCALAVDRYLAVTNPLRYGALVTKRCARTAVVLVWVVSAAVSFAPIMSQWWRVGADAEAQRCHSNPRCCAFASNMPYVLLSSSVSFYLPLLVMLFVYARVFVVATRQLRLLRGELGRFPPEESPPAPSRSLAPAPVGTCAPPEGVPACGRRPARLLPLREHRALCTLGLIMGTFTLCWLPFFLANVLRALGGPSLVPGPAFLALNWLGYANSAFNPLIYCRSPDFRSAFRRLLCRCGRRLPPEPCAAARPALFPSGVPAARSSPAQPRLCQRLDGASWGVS
Chain of 5-hydroxytryptamine receptor 6 (P50406 whole entry): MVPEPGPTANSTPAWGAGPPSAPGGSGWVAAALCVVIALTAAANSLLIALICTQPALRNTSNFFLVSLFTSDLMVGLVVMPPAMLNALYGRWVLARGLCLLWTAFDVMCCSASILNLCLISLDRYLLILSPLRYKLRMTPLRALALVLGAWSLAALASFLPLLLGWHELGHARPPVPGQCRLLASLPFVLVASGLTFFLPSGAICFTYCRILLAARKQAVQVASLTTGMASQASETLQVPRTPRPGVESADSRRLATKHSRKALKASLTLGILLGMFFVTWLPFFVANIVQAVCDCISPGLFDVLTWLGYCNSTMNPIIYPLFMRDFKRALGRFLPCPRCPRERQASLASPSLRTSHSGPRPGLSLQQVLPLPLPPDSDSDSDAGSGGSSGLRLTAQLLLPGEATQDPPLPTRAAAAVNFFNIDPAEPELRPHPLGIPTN
`O=C(c1ccccc1C(F)(F)F)N1CCC(Cc2ccccc2)CC1`: the IC50 result is recorded as “Not Active”.

On to `CN/C(=N\CCSCc1nc[nH]c1C)NC#N` [CIMETIDINE], for which the IC50 result is on record as “Not Active”.

On to `COc1cc(N)c(Cl)cc1C(=O)NC1CCN(CCCOc2ccc(F)cc2)CC1OC` (stereo not drawn) [CISAPRIDE], for which the IC50 entry is on record as “Not Active”.

Regarding `COC(=O)CCc1ccc(OCC(O)CNC(C)C)cc1` (stereo not drawn) [ESMOLOL], the IC50 entry is “Not Active”.

For `CC(C(=O)O)c1cccc(Oc2ccccc2)c1` (stereo not drawn) [FENOPROFEN], the IC50 entry is listed as “Not Active”.

Consider `COc1ccc2c3c1O[C@H]1C[C@@H](O)C=C[C@@]31CCN(C)C2` [GALANTAMINE], for which the IC50 entry was “Not Active”.

Turning to `N=C(N)NC(=O)Cc1c(Cl)cccc1Cl` [GUANFACINE], the IC50 entry was “Not Active”.

Consider `Oc1c(Cl)cc(Cl)c(Cl)c1Cc1c(O)c(Cl)cc(Cl)c1Cl` [HEXACHLOROPHENE], for which the IC50 result is “Not Active”.

On to `NNc1nncc2ccccc12` [HYDRALAZINE], for which the IC50 result was “Not Active”.

Another series addresses 5-hydroxytryptamine receptor 6 (Homo sapiens, UniProt P50406). In kind it is cell membranes, HeLa, Membrane. Particulars: hela.
For `O=C(c1ccccc1C(F)(F)F)N1CCC(Cc2ccccc2)CC1`, the IC50 entry was “Not Active”.

Take `CN/C(=N\CCSCc1nc[nH]c1C)NC#N` [CIMETIDINE]: the IC50 result is recorded as “Not Active”.

Regarding `COc1cc(N)c(Cl)cc1C(=O)NC1CCN(CCCOc2ccc(F)cc2)CC1OC` (stereo not drawn) [CISAPRIDE], the IC50 entry is “Not Active”.

Turning to `COC(=O)CCc1ccc(OCC(O)CNC(C)C)cc1` (stereo not drawn) [ESMOLOL], the IC50 result is given as “Not Active”.

For `CC(C(=O)O)c1cccc(Oc2ccccc2)c1` (stereo not drawn) [FENOPROFEN], the IC50 entry is given as “Not Active”.

With `COc1ccc2c3c1O[C@H]1C[C@@H](O)C=C[C@@]31CCN(C)C2` [GALANTAMINE], the IC50 result was “Not Active”.

Turning to `N=C(N)NC(=O)Cc1c(Cl)cccc1Cl` [GUANFACINE], the IC50 entry is on record as “Not Active”.

`Oc1c(Cl)cc(Cl)c(Cl)c1Cc1c(O)c(Cl)cc(Cl)c1Cl` [HEXACHLOROPHENE]: the IC50 entry is “Not Active”.

Take `NNc1nncc2ccccc12` [HYDRALAZINE]: the IC50 result was “Not Active”.

The target of a further series is Cannabinoid receptor 1 (Homo sapiens, UniProt P21554). In kind it is cell membranes, Chem-1, Membrane. The conditions noted are these: chem-1. Further: in other assays of this panel Not Active means under 50% inhibition at 10 µM.
Chain of Cannabinoid receptor 1 (P21554 whole entry): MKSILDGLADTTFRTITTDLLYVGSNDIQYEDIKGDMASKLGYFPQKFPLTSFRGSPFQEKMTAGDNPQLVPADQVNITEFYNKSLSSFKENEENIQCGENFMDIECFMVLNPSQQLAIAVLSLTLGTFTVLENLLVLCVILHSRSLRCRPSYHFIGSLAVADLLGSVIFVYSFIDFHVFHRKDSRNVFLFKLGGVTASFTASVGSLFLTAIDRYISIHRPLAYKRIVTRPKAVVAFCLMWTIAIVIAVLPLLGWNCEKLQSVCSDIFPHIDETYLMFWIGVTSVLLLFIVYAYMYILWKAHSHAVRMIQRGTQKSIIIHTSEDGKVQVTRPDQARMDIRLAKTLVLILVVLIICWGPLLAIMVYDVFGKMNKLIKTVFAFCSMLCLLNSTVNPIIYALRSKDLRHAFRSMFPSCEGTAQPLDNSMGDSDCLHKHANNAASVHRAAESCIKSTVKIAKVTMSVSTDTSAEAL
For the compound `O=C(c1ccccc1C(F)(F)F)N1CCC(Cc2ccccc2)CC1`, the IC50 result was “Not Active”.

For the compound `CN/C(=N\CCSCc1nc[nH]c1C)NC#N` [CIMETIDINE], the IC50 entry is “Not Active”.

For the compound `COc1cc(N)c(Cl)cc1C(=O)NC1CCN(CCCOc2ccc(F)cc2)CC1OC` (stereo not drawn) [CISAPRIDE], the IC50 result is recorded as “Not Active”.

On to `COC(=O)CCc1ccc(OCC(O)CNC(C)C)cc1` (stereo not drawn) [ESMOLOL], for which the IC50 result is on record as “Not Active”.

On to `CC(C(=O)O)c1cccc(Oc2ccccc2)c1` (stereo not drawn) [FENOPROFEN], for which the IC50 result is “Not Active”.

In the case of `COc1ccc2c3c1O[C@H]1C[C@@H](O)C=C[C@@]31CCN(C)C2` [GALANTAMINE], the IC50 result is “Not Active”.

As to `N=C(N)NC(=O)Cc1c(Cl)cccc1Cl` [GUANFACINE], the IC50 result was “Not Active”.

Regarding `Oc1c(Cl)cc(Cl)c(Cl)c1Cc1c(O)c(Cl)cc(Cl)c1Cl` [HEXACHLOROPHENE], the IC50 result is given as “Not Active”.

As to `NNc1nncc2ccccc12` [HYDRALAZINE], the IC50 entry was “Not Active”.

For a further series, the target named is T1, C-X-C chemokine receptor type 2 (Homo sapiens, UniProt P25025). Further: in other assays of this panel Not Active means under 50% inhibition at 10 µM.
T1 sequence (P25025 whole entry): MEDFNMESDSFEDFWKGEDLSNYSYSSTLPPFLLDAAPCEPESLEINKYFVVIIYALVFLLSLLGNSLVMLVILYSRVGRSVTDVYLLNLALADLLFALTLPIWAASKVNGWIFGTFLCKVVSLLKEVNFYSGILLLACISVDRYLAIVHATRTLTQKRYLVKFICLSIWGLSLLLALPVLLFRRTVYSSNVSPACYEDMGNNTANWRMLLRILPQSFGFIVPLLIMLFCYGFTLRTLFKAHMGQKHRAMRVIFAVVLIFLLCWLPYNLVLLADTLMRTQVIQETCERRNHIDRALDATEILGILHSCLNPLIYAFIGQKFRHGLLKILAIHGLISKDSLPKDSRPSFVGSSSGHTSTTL
The class given is cell membranes, Membrane. The conditions noted are these: cho-k1.
Consider `O=C(c1ccccc1C(F)(F)F)N1CCC(Cc2ccccc2)CC1`, for which the IC50 entry is recorded as “Not Active”.

For the compound `CN/C(=N\CCSCc1nc[nH]c1C)NC#N` [CIMETIDINE], the IC50 result is reported as “Not Active”.

As for `COc1cc(N)c(Cl)cc1C(=O)NC1CCN(CCCOc2ccc(F)cc2)CC1OC` (stereo not drawn) [CISAPRIDE], the IC50 result was “Not Active”.

Take `COC(=O)CCc1ccc(OCC(O)CNC(C)C)cc1` (stereo not drawn) [ESMOLOL]: the IC50 result is “Not Active”.

For the compound `CC(C(=O)O)c1cccc(Oc2ccccc2)c1` (stereo not drawn) [FENOPROFEN], the IC50 result is given as “Not Active”.

For `COc1ccc2c3c1O[C@H]1C[C@@H](O)C=C[C@@]31CCN(C)C2` [GALANTAMINE], the IC50 entry is recorded as “Not Active”.

Turning to `N=C(N)NC(=O)Cc1c(Cl)cccc1Cl` [GUANFACINE], the IC50 result is reported as “Not Active”.

Take `Oc1c(Cl)cc(Cl)c(Cl)c1Cc1c(O)c(Cl)cc(Cl)c1Cl` [HEXACHLOROPHENE]: the IC50 result is “Not Active”.

Turning to `NNc1nncc2ccccc12` [HYDRALAZINE], the IC50 result is listed as “Not Active”.

Test system in the next series: not listed separately
In words: DRUGMATRIX: GABAA, Chloride Channel, TBOB radioligand binding (ligand: [3H] TBOB). In kind it is cell membranes, Rattus norvegicus, Wistar, Cerebral cortex, Membrane. Particulars: Not Active = under 50% inhibition at 10 µM.
In the case of `O=C(c1ccccc1C(F)(F)F)N1CCC(Cc2ccccc2)CC1`, the IC50 result was “Not Active” and the Ki result is given as “Not Active”.

Take `CN/C(=N\CCSCc1nc[nH]c1C)NC#N` [CIMETIDINE]: the IC50 entry is “Not Active” and the Ki result is “Not Active”.

Regarding `COc1cc(N)c(Cl)cc1C(=O)NC1CCN(CCCOc2ccc(F)cc2)CC1OC` (stereo not drawn) [CISAPRIDE], the IC50 result is on record as “Not Active” and the Ki result is listed as “Not Active”.

On to `COC(=O)CCc1ccc(OCC(O)CNC(C)C)cc1` (stereo not drawn) [ESMOLOL], for which the IC50 result is listed as “Not Active” and the Ki entry is on record as “Not Active”.

`CC(C(=O)O)c1cccc(Oc2ccccc2)c1` (stereo not drawn) [FENOPROFEN]: the IC50 entry is “Not Active” and the Ki result is “Not Active”.

Take `COc1ccc2c3c1O[C@H]1C[C@@H](O)C=C[C@@]31CCN(C)C2` [GALANTAMINE]: the IC50 entry is “Not Active” and the Ki entry is recorded as “Not Active”.

Consider `N=C(N)NC(=O)Cc1c(Cl)cccc1Cl` [GUANFACINE], for which the IC50 entry is reported as “Not Active” and the Ki entry is reported as “Not Active”.

On to `Oc1c(Cl)cc(Cl)c(Cl)c1Cc1c(O)c(Cl)cc(Cl)c1Cl` [HEXACHLOROPHENE], for which the IC50 entry was “Not Active” and the Ki result is “Not Active”.

Take `NNc1nncc2ccccc12` [HYDRALAZINE]: the IC50 entry is listed as “Not Active” and the Ki entry is given as “Not Active”.

Test system in the next series: not listed separately
In words: DRUGMATRIX: Platelet-Derived Growth Factor (PDGF) radioligand binding (ligand: [125I] PDGF). In kind it is cell-based. The conditions noted are these: nih3t3; Not Active = under 50% inhibition at 10 µM.
On to `O=C(c1ccccc1C(F)(F)F)N1CCC(Cc2ccccc2)CC1`, for which the IC50 result is “Not Active” and the Ki result was “Not Active”.

With `CN/C(=N\CCSCc1nc[nH]c1C)NC#N` [CIMETIDINE], the IC50 result is listed as “Not Active” and the Ki result was “Not Active”.

With `COc1cc(N)c(Cl)cc1C(=O)NC1CCN(CCCOc2ccc(F)cc2)CC1OC` (stereo not drawn) [CISAPRIDE], the IC50 result was “Not Active” and the Ki entry is given as “Not Active”.

For the compound `COC(=O)CCc1ccc(OCC(O)CNC(C)C)cc1` (stereo not drawn) [ESMOLOL], the IC50 entry is on record as “Not Active” and the Ki entry was “Not Active”.

For the compound `CC(C(=O)O)c1cccc(Oc2ccccc2)c1` (stereo not drawn) [FENOPROFEN], the IC50 result is “Not Active” and the Ki result is “Not Active”.

As to `COc1ccc2c3c1O[C@H]1C[C@@H](O)C=C[C@@]31CCN(C)C2` [GALANTAMINE], the IC50 result is “Not Active” and the Ki result was “Not Active”.

Take `N=C(N)NC(=O)Cc1c(Cl)cccc1Cl` [GUANFACINE]: the IC50 result was “Not Active” and the Ki result is on record as “Not Active”.

Regarding `Oc1c(Cl)cc(Cl)c(Cl)c1Cc1c(O)c(Cl)cc(Cl)c1Cl` [HEXACHLOROPHENE], the IC50 entry is “Not Active” and the Ki entry is reported as “Not Active”.

For `NNc1nncc2ccccc12` [HYDRALAZINE], the IC50 result is “Not Active” and the Ki entry is recorded as “Not Active”.

The target in the next series is Cytochrome P450 3A4 (Homo sapiens, UniProt P08684). Particulars: bti-tn-5b1-4. Further: in other assays of this panel Not Active means under 50% inhibition at 10 µM.
Chain of Cytochrome P450 3A4 (P08684 whole entry): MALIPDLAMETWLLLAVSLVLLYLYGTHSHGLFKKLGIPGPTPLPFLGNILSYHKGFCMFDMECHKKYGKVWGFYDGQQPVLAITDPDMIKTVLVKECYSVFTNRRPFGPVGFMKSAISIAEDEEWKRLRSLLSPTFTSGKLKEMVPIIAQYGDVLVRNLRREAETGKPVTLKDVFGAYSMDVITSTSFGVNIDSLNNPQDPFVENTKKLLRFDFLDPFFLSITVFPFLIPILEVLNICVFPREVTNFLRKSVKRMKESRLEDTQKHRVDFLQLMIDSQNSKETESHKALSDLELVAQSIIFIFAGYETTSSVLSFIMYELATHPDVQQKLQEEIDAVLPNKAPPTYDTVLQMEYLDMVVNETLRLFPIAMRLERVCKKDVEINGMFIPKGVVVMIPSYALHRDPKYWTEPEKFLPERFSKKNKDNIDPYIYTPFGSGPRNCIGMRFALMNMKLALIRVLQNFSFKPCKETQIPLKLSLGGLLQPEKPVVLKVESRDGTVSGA
For the compound `O=C(c1ccccc1C(F)(F)F)N1CCC(Cc2ccccc2)CC1`, the IC50 result is “Not Active” and the Ki result is listed as “Not Active”.

As for `COC(=O)CCc1ccc(OCC(O)CNC(C)C)cc1` (stereo not drawn) [ESMOLOL], the IC50 entry was “Not Active” and the Ki entry was “Not Active”.

Turning to `CC(C(=O)O)c1cccc(Oc2ccccc2)c1` (stereo not drawn) [FENOPROFEN], the IC50 entry is “Not Active” and the Ki result was “Not Active”.

For `N=C(N)NC(=O)Cc1c(Cl)cccc1Cl` [GUANFACINE], the IC50 entry is “Not Active” and the Ki result is on record as “Not Active”.

On to `Oc1c(Cl)cc(Cl)c(Cl)c1Cc1c(O)c(Cl)cc(Cl)c1Cl` [HEXACHLOROPHENE], for which the IC50 result was “Not Active” and the Ki entry is “Not Active”.

Turning to `NNc1nncc2ccccc12` [HYDRALAZINE], the IC50 result was “Not Active” and the Ki entry is reported as “Not Active”.

The target of the next series is T2, Estrogen receptor (Homo sapiens, UniProt P03372). Further: in other assays of this panel Not Active means under 50% inhibition at 10 µM.
T2 sequence (P03372 whole entry): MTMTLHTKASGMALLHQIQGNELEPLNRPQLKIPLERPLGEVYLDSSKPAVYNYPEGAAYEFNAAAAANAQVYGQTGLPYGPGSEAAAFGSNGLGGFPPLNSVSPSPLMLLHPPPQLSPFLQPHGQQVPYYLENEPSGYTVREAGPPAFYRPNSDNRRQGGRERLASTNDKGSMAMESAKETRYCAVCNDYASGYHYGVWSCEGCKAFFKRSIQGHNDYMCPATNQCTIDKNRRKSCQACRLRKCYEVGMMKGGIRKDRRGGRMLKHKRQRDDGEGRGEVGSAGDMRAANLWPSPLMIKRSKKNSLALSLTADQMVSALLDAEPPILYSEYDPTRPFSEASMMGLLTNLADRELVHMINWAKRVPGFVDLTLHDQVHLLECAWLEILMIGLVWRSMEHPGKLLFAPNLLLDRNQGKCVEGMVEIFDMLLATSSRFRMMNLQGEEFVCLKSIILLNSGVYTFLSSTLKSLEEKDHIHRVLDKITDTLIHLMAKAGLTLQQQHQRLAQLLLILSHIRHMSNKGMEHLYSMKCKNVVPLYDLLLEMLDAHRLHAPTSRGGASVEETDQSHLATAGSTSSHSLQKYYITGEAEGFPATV
The conditions noted are these: sf9.
Regarding `O=C(c1ccccc1C(F)(F)F)N1CCC(Cc2ccccc2)CC1`, the IC50 entry is “Not Active”.

As for `CN/C(=N\CCSCc1nc[nH]c1C)NC#N` [CIMETIDINE], the IC50 entry was “Not Active”.

On to `COc1cc(N)c(Cl)cc1C(=O)NC1CCN(CCCOc2ccc(F)cc2)CC1OC` (stereo not drawn) [CISAPRIDE], for which the IC50 result is recorded as “Not Active”.

Take `COc1ccc2c3c1O[C@H]1C[C@@H](O)C=C[C@@]31CCN(C)C2` [GALANTAMINE]: the IC50 entry is listed as “Not Active”.

These data come from ChEMBL document CHEMBL1909046, “DrugMatrix in vitro pharmacology data”.
